What is called IC50 is the concentration that gives 50% inhibition. As usually defined, the EC50 is the concentration needed to bring the measured effect to its halfway point.

Where two headings read alike, the source gives them in different places.

Among the data in US10703733B2, “MCL-1 inhibitors” (Gilead Sciences, Inc., priority 2018, dated 2020) are IC50 and EC50 values, retold here.

The target in assay [1] is MCL-1/Bim interaction (recombinant human MCL-1 protein, residues 171-327; biotinylated human Bim peptide, residues 51-76) (Homo sapiens (Human), UniProt Q07820). As to the kind of experiment: MCL-1/Bim Binding AlphaLISA Assay. The settings on record: 0.0625 nM 6xHis-Mcl-1 (171-327), 0.0625 nM biotinylated-Bim peptide. The protocol: MCL-1/Bim Binding AlphaLISA Assay.
MCL-1/Bim interaction (recombinant human MCL-1 protein, residues 171-327; biotinylated human Bim peptide, residues 51-76), sequence (Q07820 171-327): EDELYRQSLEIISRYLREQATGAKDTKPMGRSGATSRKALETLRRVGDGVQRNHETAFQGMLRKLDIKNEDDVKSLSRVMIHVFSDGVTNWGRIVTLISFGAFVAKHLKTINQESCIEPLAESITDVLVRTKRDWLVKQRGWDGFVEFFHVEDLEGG
Inhibition of the MCL-1 and Bim interaction was measured in the following AlphaLISA assay.
Recombinant human MCL-1 protein (C-terminal 6×His Tagged Mcl-1 containing residues 171-327) was generated at Gilead Sciences, Inc. (Foster City, Calif.). A biotinylated peptide derived from human Bim (residues 51-76) was purchased from CPC Scientific (Sunnyvale, Calif.). (CPC 834113). AlphaLISA anti-6His-acceptor beads (AL128R), AlphaScreen Streptavidin donor beads (6760002B), and Proxiplate-384 Plus (6008289) were purchased from PerkinElmer.
The AlphaLISA assay was performed in a 384-well Proxiplate in a total volume of […]. The reaction mixture contained 0.0625 nM 6×His-Mcl-1 (171-327), 0.0625 nM biotinylated-Bim peptide, 10 μg/mL AlphaLISA anti-6×His-AlphaLISA acceptor beads, […] AlphaScreen streptavidin donor beads, and serially diluted test compounds in the binding buffer (20 mM Hepes, pH 7.5 (Teknova H1035); 150 mM NaCl (Promega V4221); 0.002% Brij 35 (Thermo Scientific 20150); 1 mM Dithiothreitol (DTT) Solution (Affymetrix 70726); 0.01% BSA (BioLabs B9000S)). 1,000×test compounds were pre-spotted onto 384-well Proxiplate (Labcyte Echo) by Echo 555 Liquid Handler (Labcyte Inc., San Jose, Calif.) followed by incubation of 5 μl Mcl-1(171-327) for 1 hour. Then 5 μL Bim (51-76) was added and incubated for 2 hours. Five μL AlphaLISA anti-6His-AlphaLISA acceptor beads were then added for 1 hour followed by addition of 5 μL AlphaScreen streptavidin donor beads for 1 hour. The reaction plates were then read on an Envision multimode reader (PerkinElmer) using AlphaScreen settings. […] Percent inhibition was calculated as shown below: % Inhibition=100%*(Well−Neg)/(Pos−Neg) Neg: negative control, DMSO Pos: positive control, no Mcl-1 protein, no biotinylated-Bim peptide
(In general: Alpha assays give light when donor and acceptor beads are brought close together.)

The subject of assay [2] is SKBR3 cells. Kind of assay: SKBR3 Cell Viability Assay (CellTiter Glo). Format: cell-based. The settings on record: CellTiter Glo luminescence, read-out: MCL-1 CV SKBR3 EC50. Here is the method: SKBR3 Cell Viability Assay Materials
SKBR3 Cells (ATCC HTB-30) were obtained from ATCC (Manassas, Va.) and cultured in McCoy 5A's medium (ATCC 30-2007)+10% fetal bovine serum (SH30071.03, HyClone, Pittsburgh, Pa.) plus 1× Penicillin-Streptomycin L-glutamine (Corning 30-009-C1, Corning, N.Y.)).
The cell viability assay was conducted in a 384-well tissue culture plate (Grenier 781086, Monroe, N.C.) in a total volume of 70 μL. Test compounds were prepared in 1,000×, serially diluted, and pre-spotted into 384-well tissue culture plate by Echo 555 Liquid Handler (Labcyte Inc., San Jose, Calif.). Seventy μl of 6,000 SKBR3 cells were dispensed into each well of the plate and incubated at 37° C. with 5% CO2 for 72 hours. At the end of incubation, 2× CellTiter Glo (CTG) reagents (1 part buffer with 2 parts substrate) (Promega, Madison, Wis.) were prepared, and the plate and the reagent were equilibrated to room temperature for 30 minutes. CTG reagent was added to each plate by Biomek FX at 20 μL/well with 5 times pipetting and mixing to induce cell lysis. Luminescence was read by Envision multimode reader (PerkinElmer). […] Percent inhibition was calculated as followed: % Inhibition=100%*(Well−Neg)/(Pos−Neg) Neg, negative control, DMSO Pos, positive control, 10 μM Puromycin

Take `CO[C@H]1/C=C/C[C@H](C)C[S@@](=O)(NC(=O)N[C@H]2C[C@H](F)C2)=NC(=O)c2ccc3c(c2)N(C[C@@H]2CC[C@H]21)C[C@@]1(CCCc2cc(Cl)ccc21)CO3` [Example 357]: the IC50 in assay [1] was 0.113 nM. In assay [2] (Homo sapiens, SK-BR-3, 72 h), the 50% effective concentration (EC50) worked out at 206 nM.
Consider `CO[C@H]1/C=C/C[C@H](C)C[S@@](=O)(NC(=O)[C@H]2C[C@@](C)(O)C2)=NC(=O)c2ccc3c(c2)N(C[C@@H]2CC[C@H]21)C[C@@]1(CCCc2cc(Cl)ccc21)CO3` [Example 165], for which the IC50 in assay [1] is 0.035 nM. In assay [2] (Homo sapiens, SK-BR-3, 72 h), the EC50 came out at 45.5 nM.
For `CO[C@H]1/C=C/C[C@H](C)C[S@@](=O)(NC(=O)c2ccc3c(c2)COCC3)=NC(=O)c2ccc3c(c2)N(C[C@@H]2CC[C@H]21)C[C@@]1(CCCc2cc(Cl)ccc21)CC3` [Example 157] the same measures were 0.234 nM and 64.8 nM.
In the same order, the values of `CO[C@H]1/C=C/C[C@H](C)C[S@@](=O)(NC(=O)c2cn(C)nc2OCC2CC2)=NC(=O)c2ccc3c(c2)N(C[C@@H]2CC[C@H]21)C[C@@]1(CCCc2cc(Cl)ccc21)CO3` [Example 221] are 0.046 nM and 104 nM.
In the same order, the values of `CO[C@H]1/C=C/C[C@H](C)C[S@@](=O)(NC(=O)c2ccn(C3CC3)c2)=NC(=O)c2ccc3c(c2)N(C[C@@H]2CC[C@H]21)C[C@@]1(CCCc2cc(Cl)ccc21)CO3` [Example 156] are 0.111 nM and 145 nM.
For the molecule `C[C@@H]1[C@@H](C)C/C=C/[C@H](O)[C@@H]2CC[C@H]2CN2C[C@@]3(CCCc4cc(Cl)ccc43)COc3ccc(cc32)C(=O)N=[S@]1(=O)NC(=O)c1cc2n(c1)C[C@H](CO)OC2` [Example 329], in assay [1], the IC50 came out at 0.087 nM. In addition, in assay [2] (Homo sapiens, SK-BR-3, 72 h), the EC50 worked out at 57 nM.
For `CCn1cc(C(=O)N[S@@]2(=O)=NC(=O)c3ccc4c(c3)N(C[C@@H]3CC[C@H]3[C@@H](OC)/C=C/C[C@H](C)[C@H]2C)C[C@@]2(CCCc3cc(Cl)ccc32)CO4)cn1` [Example 153] the same measures were 0.086 nM and 69.5 nM.
In the same order, the values of `CO[C@H]1/C=C\C[C@H](C)[C@@H](C)[S@@](=O)(NC(=O)COC2CCOCC2)=NC(=O)c2ccc3c(c2)N(C[C@@H]2CC[C@H]21)C[C@@]1(CCCc2cc(Cl)ccc21)CO3` [Example 406] are 0.103 nM and 332 nM.
In the same order, the values of `CO[C@H]1/C=C/CCC[S@@](=O)(NC(=O)CCc2ccccn2)=NC(=O)c2ccc3c(c2)N(C[C@@H]2CC[C@H]21)C[C@@]1(CCCc2cc(Cl)ccc21)CO3` [Example 47] are 0.1 nM and 758 nM.
Take `CO[C@H]1/C=C/C[C@H](C)C[S@@](=O)(NC(=O)[C@H]2Cc3ccccc3CO2)=NC(=O)c2ccc3c(c2)N(C[C@@H]2CC[C@H]21)C[C@@]1(CCCc2cc(Cl)ccc21)CO3` (single isomer, unassigned) [Example 143]: in assay [1], the concentration for half-maximal inhibition (IC50) is 0.173 nM. Further, the EC50 in assay [2] (Homo sapiens, SK-BR-3, 72 h) was 219 nM.
In the same order, the values of `CO[C@H]1/C=C/C[C@H](C)C[S@@](=O)(NC(=O)N2CC(Oc3cccnc3)C2)=NC(=O)c2ccc3c(c2)N(C[C@@H]2CC[C@H]21)C[C@@]1(CCCc2cc(Cl)ccc21)CO3` [Example 352] are 0.046 nM and 54.4 nM.
In the same order, the values of `CC[C@H]1C/C=C/[C@H](OC)[C@@H]2CC[C@H]2CN2C[C@@]3(CCCc4cc(Cl)ccc43)COc3ccc(cc32)C(=O)N=[S@](=O)(NC(=O)c2cn(C)nc2OC)C1` [Example 220] are 0.122 nM and 97.8 nM.
For `CO[C@H]1/C=C/C[C@H](C)C[S@@](=O)(NC(=O)c2cnn(C(C)C)c2)=NC(=O)c2ccc3c(c2)N(C[C@@H]2CC[C@H]21)C[C@@]1(CCCc2cc(Cl)ccc21)CO3` [Example 123] the same measures were 0.071 nM and 114 nM.
On to `CO[C@H]1/C=C/C[C@H](C)C[S@@](=O)(NC(=O)c2cc(CO)n(C)c2)=NC(=O)c2ccc3c(c2)N(C[C@@H]2CC[C@H]21)C[C@@]1(CCCc2cc(Cl)ccc21)CO3` [Example 185], for which the IC50 in assay [1] is 0.041 nM. In addition, the EC50 in assay [2] (Homo sapiens, SK-BR-3, 72 h) stood at 99.2 nM.
For `COc1nn(C)cc1C(=O)N[S@@]1(=O)=NC(=O)c2ccc3c(c2)N(C[C@@H]2CC[C@H]2[C@@H](OC(=O)CC(C)C)/C=C/C[C@H](C)C1)C[C@@]1(CCCc2cc(Cl)ccc21)CO3` [Example 381] the same measures were 0.769 nM and 534 nM.
For `CO[C@H]1/C=C/C[C@H](C)C[S@@](=O)(NC(=O)N2CCN(C(=O)OC(C)(C)C)[C@H](C)C2)=NC(=O)c2ccc3c(c2)N(C[C@@H]2CC[C@H]21)C[C@@]1(CCCc2cc(Cl)ccc21)CO3` [Example 382] the same measures were 1.4 nM and 562 nM.
In the same order, the values of `CO[C@H]1/C=C/CCC[S@@](=O)(NC(=O)CC(C)C)=NC(=O)c2ccc3c(c2)N(C[C@@H]2CC[C@H]21)C[C@@]1(CCCc2cc(Cl)ccc21)CO3` [Example 26] are 1.8 nM and 1690 nM.
`COc1nn(C)cc1C(=O)N[S@@]1(=O)=NC(=O)c2ccc3c(c2)N(C[C@@H]2CC[C@H]2[C@@H](OC)/C=C/CCC1)C[C@@]1(CCCc2cc(Cl)ccc21)CO3` [Example 389]: the IC50 in assay [1] amounted to 0.075 nM. In addition, the EC50 in assay [2] (Homo sapiens, SK-BR-3, 72 h) amounted to 304 nM.
For `COC1CN(C(=O)N[S@@]2(=O)=NC(=O)c3ccc4c(c3)N(C[C@@H]3CC[C@H]3[C@@H](OC)CCC[C@H](C)C2)C[C@@]2(CCCc3cc(Cl)ccc32)CO4)C1` [Example 244] the same measures were 0.032 nM and 116 nM.
In the same order, the values of `CO[C@H]1/C=C/C[C@H](C)C[S@@](=O)(NC(=O)c2cnn(C(F)F)c2)=NC(=O)c2ccc3c(c2)N(C[C@@H]2CC[C@H]21)C[C@@]1(CCCc2cc(Cl)ccc21)CO3` [Example 119] are 0.145 nM and 93.8 nM.
For `CO[C@H]1/C=C/C[C@H](C)C[S@@](=O)(NC(=O)N2CC3(CN(C)C(=O)O3)C2)=NC(=O)c2ccc3c(c2)N(C[C@@H]2CC[C@H]21)C[C@@]1(CCCc2cc(Cl)ccc21)CO3` [Example 272] the same measures were 0.018 nM and 47.9 nM.
As to `COc1cn(C)nc1C(=O)O[C@H]1/C=C/[C@H](OC)[C@@H]2CC[C@H]2CN2C[C@@]3(CCCc4cc(Cl)ccc43)COc3ccc(cc32)C(=O)N=[S@](=O)(NC(=O)c2cn(C)nc2OC)CC1` [Example 391], the IC50 in assay [1] worked out at 0.702 nM. In addition, the EC50 in assay [2] (72 hours) worked out at 4560 nM.
On to `CO[C@H]1/C=C/CCC[S@@](=O)(NC(=O)CCc2nnc(C)o2)=NC(=O)c2ccc3c(c2)N(C[C@@H]2CC[C@H]21)C[C@@]1(CCCc2cc(Cl)ccc21)CO3` [Example 60], for which the IC50 in assay [1] was 0.2 nM. Moreover, the EC50 in assay [2] (Homo sapiens, SK-BR-3, 72 h) was 1090 nM.
As for `CO[C@H]1/C=C/CCC[S@@](=O)(NC(=O)CCS(C)(=O)=O)=NC(=O)c2ccc3c(c2)N(C[C@@H]2CC[C@H]21)C[C@@]1(CCCc2cc(Cl)ccc21)CO3` [Example 28], the IC50 in assay [1] came to 0.2 nM. Further, the EC50 in assay [2] (Homo sapiens, SK-BR-3, 72 h) is 8410 nM.
For the molecule `CO[C@H]1/C=C/CCC[S@@](=O)(NC(=O)Cc2ncccn2)=NC(=O)c2ccc3c(c2)N(C[C@@H]2CC[C@H]21)C[C@@]1(CCCc2cc(Cl)ccc21)CO3` [Example 30], the IC50 in assay [1] was found to be 0.6 nM. Besides, in assay [2] (Homo sapiens, SK-BR-3, 72 h), the EC50 stood at 1840 nM.
In the same order, the values of `CO[C@H]1/C=C/C[C@H](C)C[S@@](=O)(NC(=O)N2CC(C(C)(C)O)C2)=NC(=O)c2ccc3c(c2)N(C[C@@H]2CC[C@H]21)C[C@@]1(CCCc2cc(Cl)ccc21)CO3` [Example 237] are 0.044 nM and 121 nM.
For `COCCOCCO[C@H]1/C=C/[C@H](OC)[C@@H]2CC[C@H]2CN2C[C@@]3(CCCc4cc(Cl)ccc43)COc3ccc(cc32)C(=O)N=[S@](=O)(NC(=O)c2cn(C)nc2OC)C[C@H]1C` [Example 376] the same measures were 0.031 nM and 26.7 nM.
